Patent US7763615B2, “Ecteinascidin analogs for use as antitumour agents” (priority 2001, dated 2010)
Values after ≈ are worked out from the molar mass of the structure shown.

Legend:
A498 = assay: cells; format: cell-based; details: Homo sapiens
Method in brief: (§1)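 Human tumour cells seeded at 5×10^3 per well in RPMI 1640 10% FBS, attached 18 h, then exposed 48 h to samples from 10 to 10^−8 μg/ml in DMSO/EtOH/PBS. Growth measured by SRB staining after TCA fixation, OD 490 nm, triplicate wells; GI, TGI and LC derived.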

A549 = assay: cells; format: cell-based; details: Homo sapiens, A549, 48 h; for GI50 / IC (TGI): A549, 48 hours exposure, SRB; for GI50: read-out: GI50; for IC (TGI): read-out: TGI; for CC50: read-out: LC50, A549, 48 hours exposure, SRB
Method in brief: as §1

DU145 = assay: cells; format: cell-based; details: Homo sapiens, DU-145, 48 h; for GI50 / IC (TGI): DU145, 48 hours exposure, SRB; for CC50: read-out: LC50, DU145, 48 hours exposure, SRB
Method in brief: as §1

HT29 = assay: cells; format: cell-based; details: Homo sapiens, HT-29, 48 h; for GI50 / IC (TGI): HT29, 48 hours exposure, SRB; for CC50: read-out: LC50, HT29, 48 hours exposure, SRB
Method in brief: as §1

MB231 = assay: cells; format: cell-based; details: Homo sapiens
Method in brief: as §1

MCF = assay: cells; format: cell-based; details: Homo sapiens
Method in brief: as §1

MEL-28 = assay: cells; format: cell-based; details: Homo sapiens, SK-MEL-28, 48 h; for GI50 / IC (TGI): MEL-28, 48 hours exposure, SRB; for CC50: read-out: LC50, MEL-28, 48 hours exposure, SRB
Method in brief: as §1

SW-620 = assay: cells; format: cell-based; details: Homo sapiens
Method in brief: as §1

[1] = system: AML-12, normal mouse liver cells; details: 24 h
[2] = system: NRK-52E, normal rat kidney cells; details: 24 h
Description: In order to assess the cytotoxicity of the drugs to normal cells, we used 96 well plates plated at a density of 5000 cells per well (except for the FDC-P1 which were plated at 12,000 cells per well) with normal cell lines (ATCC, Table 1) maintained as per the directions of the ATCC: AML-12, normal mouse liver cells; NRK-52E, normal rat kidney cells; L8, normal rat skeletal muscle cells; FDC-P1, normal mouse myelogeous stem cells; and H9c2 (2-1), normal rat cardiac muscle cells. The cells in each plate were permitted to settle overnight before adding the test drug.
To each well (100 μl medium) 10 μl of drug in media was added at varying concentrations (1×10-10-0.01 mg/ml final concentration) and further incubated overnight at 37° C. with 5% CO2. After 24 h the following assays were performed. All experiments were repeated at least 3 times and were assayed in duplicate.
MTS assay (CellTiter 96 aqueous) was performed according to the manufacturer's (Promega) directions (for all cell types). Cell viability (mitochondrial activity) is determined via enzymatic conversion of the formazan substrate.

[3] = system: L8, normal rat skeletal muscle cells; details: 24 h
[4] = system: FDC-P1, normal mouse myelogeous stem cells; details: 24 h
[5] = system: H9c2 (2-1), normal rat cardiac muscle cells; details: 24 h
[6] = s9, 60 min, 1 μM
physchem [7] = details: pH 7.4, log D n-Octanol-Dulbecco's PBS pH 7.4
Description: The measurement of partition coefficient was evaluated based on a miniaturized shake-flask procedure. Buffer (Dulbecco's PBS, pH 7.40) was used as the aqueous phase. The tested compound was dissolved in DMSO, at the concentration of 100 μM. The final DMSO concentration (1%.) during the octanol-buffer partitioning are very low to avoid bias on the partitioning. The amount of compound in the buffer phase was determined by HPLC with photodiode array detection after an equilibration phase of 60 min. The amount of compound in the octanol phase is calculated by subtraction of the amount of compound in buffer from the total amount of compound, which is determined from a calibration sample.
Log D is calculated as the Log10 of the amount of compound in the octanol phase divided by the amount of compound in the buffer phase. The effective range of the log D microassay is approximately −0.5 to +4.5.

CYP3A4 = CYP3A4 (Homo sapiens, UniProt P08684); assay: in vitro; details: CYP3A4 (% inhibition)
Description: For CYP3A4 inhibition assay, the compound were tested at 10 μM in duplicate with a 0.25% final concentration of both methanol and acetonitrile in presence of the fluorescent substrate BFC (50 μM). The conversion of the BFC (7-benzyloxy-4-trifluoromethylcoumarin) in HFC (7-hydroxy-4-trifluoromethylcoumarin) was determined spectro-fluormetry after incubation with the enzyme during 30 min at 37° C.
For both assays, the fluorescent intensity measured at t=0 is subtracted from that measured after the appropriate incubation time. The ratio of signal-to-noise is calculated by comparing the fluorescence in incubations containing the test compound to the control samples containing the same solvent vehicle. The percent of control activity is calculated and reported as percent inhibition.

physchem [8] = details: pH 7.4, aqueous buffer, Solubility Dulbecco's PBS pH 7.4
IGROV-ET = assay: cells; format: cell-based; details: Homo sapiens, 48 h
Method in brief: as §1

IGROV = assay: cells; format: cell-based; details: Homo sapiens, 48 h
Method in brief: as §1

K562 = assay: cells; format: cell-based; details: Homo sapiens, K562, 48 h
Method in brief: as §1

LNCAP = assay: cells; format: cell-based; details: Homo sapiens, LNCaP, 48 h
Method in brief: as §1

LOVO-DOX = assay: cells; format: cell-based; details: Homo sapiens, 48 h
Method in brief: as §1

LOVO = assay: cells; format: cell-based; details: Homo sapiens, LoVo, 48 h
Method in brief: as §1

PANC-1 = assay: cells; format: cell-based; details: Homo sapiens, PANC-1, 48 h
Method in brief: as §1

SK-BR3 = assay: cells; format: cell-based; details: Homo sapiens, SK-BR-3, 48 h
Method in brief: as §1

H-MEC-1 = assay: Inhibition of cells growth by colorimetric assay (SRB), H-MEC-1; format: cell-based; details: Homo sapiens, HMEC-1, 48 h
Method in brief: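 Readout: SRB OD490, triplicate wells. Setup: 5×10^3 cells/well, RPMI 1640 + 10% FBS, 37° C, 5% CO2; 18 h pre-attachment; 48 h sample exposure, 10 to 10^−8 μg/ml. Outputs GI, TGI (cytostatic), LC (cytotoxic).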

SK-OV3 = assay: Inhibition of cells growth by colorimetric assay (SRB), SK-OV3; format: cell-based
Method in brief: as §1

(HEPG2) = details: human, 24 h, 30 μM
Description: The toxic potential of compounds was investigated in vitro using primary human hepatocytes (HEPG2). The compounds were tested at 30 μM in duplicate with a final DMSO concentration of 1%. After incubation during 24 h at 37° C. the cell viability was determined by the conversion of oxided alarmarBlue (resazurin) to reduced alarmarBlue (resorufin). Chlorpromazine was used as reference compound. Results are expressed as a percent of inhibition of control values.

[9] = IGROV-ET, 48 hours exposure, SRB
[10] = LOVO-DOX, 48 hours exposure, SRB
[11] = H-MEC-1, 48 hours exposure, SRB

CYP3A4, sequence (P08684 whole entry): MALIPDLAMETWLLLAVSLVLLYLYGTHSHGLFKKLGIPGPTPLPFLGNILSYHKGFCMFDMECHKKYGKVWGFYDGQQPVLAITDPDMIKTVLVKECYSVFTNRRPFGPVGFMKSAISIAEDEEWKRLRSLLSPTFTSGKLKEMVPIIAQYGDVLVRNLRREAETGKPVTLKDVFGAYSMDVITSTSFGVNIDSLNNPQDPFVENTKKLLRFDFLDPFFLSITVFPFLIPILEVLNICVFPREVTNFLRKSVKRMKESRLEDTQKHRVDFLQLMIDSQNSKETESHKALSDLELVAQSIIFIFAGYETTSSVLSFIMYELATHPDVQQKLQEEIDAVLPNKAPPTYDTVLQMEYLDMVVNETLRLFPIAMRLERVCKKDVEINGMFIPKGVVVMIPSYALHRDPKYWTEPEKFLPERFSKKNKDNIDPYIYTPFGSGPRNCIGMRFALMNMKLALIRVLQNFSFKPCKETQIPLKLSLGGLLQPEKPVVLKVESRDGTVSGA

COc1c(C)cc2c(c1O)[C@@H]1C3[C@@H]4SC[C@]5(NCCc6c5[nH]c5ccc(C)cc65)C(=O)COC[C@@H](c5c6c(c(C)c(OC(C)=O)c54)OCO6)N3[C@@H](O)[C@H](C2)N1C (stereo partly shown) [Compound 30]
CC50 (A498; A498, 48 h, read-out: LC50): 2.6 nM | GI50 (A498; A498, 48 hours exposure, SRB): 0.13 nM | IC (TGI) (A498; A498, 48 hours exposure, SRB): 0.52 nM | GI50 (A549): 0.039 nM | IC (TGI) (A549): 0.26 nM | CC50 (A549): 1.04 nM | GI50 (DU145): 0.013 nM | IC (TGI) (DU145): 0.039 nM | CC50 (DU145): 0.13 nM | GI50 (HT29): 0.104 nM | IC (TGI) (HT29): 0.39 nM | CC50 (HT29): 1.04 nM | CC50 (MB231; 48 h, read-out: LC50): 3.9 nM | GI50 (MB231; MB231, 48 hours exposure, SRB): 0.0026 nM | IC (TGI) (MB231; MB231, 48 hours exposure, SRB, read-out: TGI): 0.13 nM | CC50 (MCF; 48 h, read-out: LC50): 2.6 nM | GI50 (MCF; MCF, 48 hours exposure, SRB): 0.26 nM | IC (TGI) (MCF; MCF, 48 hours exposure, SRB, read-out: TGI): 0.39 nM | GI50 (MEL-28): 0.026 nM | IC (TGI) (MEL-28): 0.13 nM | CC50 (MEL-28): 0.65 nM | CC50 (SW-620; SW-620, 48 h, read-out: LC50): 1.3 nM | IC (TGI) (SW-620; SW-620, 48 hours exposure, SRB): 0.39 nM | GI50 (SW-620; SW-620, 48 hours exposure, SRB, read-out: GI50): 0.026 nM | Liver [1]: 2.72E−07 | Kidney [2]: 4.19E−09 | Skeletal [3]: 2.51E−08 | Myelo [4]: 7.58E−09 | Heart [5]: 5.06E−07 | Human Liver S9 Metabolic Stability (% remaining) [6]: 6 % remaining | logD at 60 min (physchem [7]): > 4.9 | inhibition at 30 min, 10 µM (CYP3A4): 25% | solubility (physchem [8]): 2.24 µM (≈ 1.75 µg/mL)

COc1c(C)cc2c(c1O)[C@@H]1C3[C@@H]4SC[C@]5(NCCc6c5[nH]c5ccc(F)cc65)C(=O)COC[C@@H](c5c6c(c(C)c(OC(C)=O)c54)OCO6)N3[C@@H](O)[C@H](C2)N1C (stereo partly shown) [Compound 35]
GI50 (A549): 3.03 nM | IC (TGI) (A549): 7.65 nM | CC50 (A549): 4090 nM | GI50 (DU145): 3.83 nM | IC (TGI) (DU145): 12 nM | CC50 (DU145): 12900 nM | GI50 (HT29): 4.19 nM | IC (TGI) (HT29): 13.2 nM | CC50 (HT29): 12900 nM | GI50 (IGROV-ET; [9]): 5.53 nM | IC (TGI) (IGROV-ET; [9]): 23.5 nM | CC50 (IGROV-ET; read-out: LC50, IGROV-ET, 48 hours exposure, SRB): 12900 nM | GI50 (IGROV; 48 hours exposure, SRB): 3.45 nM | IC (TGI) (IGROV; 48 hours exposure, SRB): 7.72 nM | CC50 (IGROV; read-out: LC50, IGROV, 48 hours exposure, SRB): 3380 nM | GI50 (K562; K562, 48 hours exposure, SRB): 1.14 nM | IC (TGI) (K562; K562, 48 hours exposure, SRB): 2.67 nM | CC50 (K562; read-out: LC50, K562, 48 hours exposure, SRB): 10.2 nM | GI50 (LNCAP; 48 hours exposure, SRB): 0.816 nM | IC (TGI) (LNCAP; 48 hours exposure, SRB): 2.5 nM | CC50 (LNCAP; read-out: LC50, LNCAP, 48 hours exposure, SRB): 7.48 nM | GI50 (LOVO-DOX; [10]): 26.8 nM | IC (TGI) (LOVO-DOX; [10]): 124 nM | CC50 (LOVO-DOX; read-out: LC50, LOVO-DOX, 48 hours exposure, SRB): 12900 nM | GI50 (LOVO; 48 hours exposure, SRB): 2.26 nM | IC (TGI) (LOVO; 48 hours exposure, SRB): 5.68 nM | CC50 (LOVO; read-out: LC50, LOVO, 48 hours exposure, SRB): 12.9 nM | GI50 (MEL-28): 2.78 nM | IC (TGI) (MEL-28): 7.16 nM | CC50 (MEL-28): 47 nM | GI50 (PANC-1; PANC-1, 48 hours exposure, SRB): 4.52 nM | IC (TGI) (PANC-1; PANC-1, 48 hours exposure, SRB): 42.1 nM | CC50 (PANC-1; read-out: LC50, PANC-1, 48 hours exposure, SRB): 12900 nM | GI50 (SK-BR3; SK-BR3, 48 hours exposure, SRB): 2.21 nM | IC (TGI) (SK-BR3; SK-BR3, 48 hours exposure, SRB): 6.55 nM | CC50 (SK-BR3; read-out: LC50, SK-BR3, 48 hours exposure, SRB): 1090 nM | GI50 (H-MEC-1; [11]): 2.6 nM | IC (TGI) (H-MEC-1; [11]): 30.4 nM | CC50 (H-MEC-1; read-out: LC50, H-MEC-1, 48 hours exposure, SRB): 12900 nM | GI50 (SK-OV3; Homo sapiens, SK-OV-3, 48 h, SK-OV3, 48 hours exposure, SRB): 4.37 nM | CC50 (SK-OV3; Homo sapiens, SK-OV-3, 48 h, read-out: LC50, SK-OV3, 48 hours exposure, SRB): 12900 nM | TGI (SK-OV3; SK-OV3, 48 hours exposure, SRB): 1.46E−08 Molar | Liver [1]: 4.88E−08 | Kidney [2]: 3.42E−08 | Skeletal [3]: 3.07E−08 | Myelo [4]: 4.08E−08 | Heart [5]: 1.93E−08 | Human Liver S9 Metabolic Stability (% remaining) [6]: 4 % remaining | Cell Viability (% inhibition) ((HEPG2)): 23 % inhibition | logD at 60 min (physchem [7]): > 5 | inhibition at 30 min, 10 µM (CYP3A4): 24% | solubility (physchem [8]): < 1 µM
